Laboratory results reported in ChEMBL document CHEMBL1201862, “PubChem BioAssay data set” (2004).
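The compound was tested at five concentrations on cells cultured in 96-well plates, with a 48-hour exposure period. GI50: concentration for 50% inhibition of growth.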 The source made the active and inactive calls. No stated cut-off is given here; in the data, active = GI50 up to about 1.1 µM and inactive = higher.

Assays:
Test in all cases: NCI anticancer screen, dose series, 48 h
[1] = system: 786-0
[2] = system: CCRF-CEM
[3] = system: EKVX
[4] = system: HCC 2998
[5] = system: HCT-15
[6] = system: HOP-62
[7] = system: LOX IMVI
[8] = system: NCI-H226
[9] = system: NCI-H522
[10] = system: OVCAR-3
[11] = system: OVCAR-5
[12] = system: SF-268
[13] = system: SK-MEL-2
[14] = system: SK-OV-3
[15] = system: RPMI-8226
[16] = system: UACC-62

SMILES	GI50 [1]	GI50 [2]	GI50 [3]	GI50 [4]	GI50 [5]	GI50 [6]	GI50 [7]	GI50 [8]	GI50 [9]	GI50 [10]	GI50 [11]	GI50 [12]	GI50 [13]	GI50 [14]	GI50 [15]	GI50 [16]
Brc1ccc(-c2cc3c(cc2C2SCCS2)OCO3)cc1	26.9 µM (inactive)	19.3 µM (inactive)	10.7 µM (inactive)	29 µM (inactive)	29.7 µM	31.4 µM (inactive)	0.359 µM (active)	8.17 µM (inactive)	10.9 µM (inactive)	16.6 µM (inactive)	16.6 µM (inactive)	26.9 µM (inactive)	28.8 µM (inactive)	21.3 µM (inactive)		
CC(c1ccc2c(c1)CCC1C2CC2OC23CC=CC(=O)[C@]13C)C1C[C@]2(C)O[C@]2(C)[C@H](O)O1 (stereo partly specified)	> 100 µM (inactive)	15.4 µM (inactive)	5.48 µM (inactive)	83.4 µM (inactive)	82.4 µM	0.791 µM (active)	20.1 µM (inactive)	12.1 µM (inactive)	14 µM (inactive)	19.2 µM (inactive)	> 100 µM (inactive)	63.4 µM (inactive)	52.2 µM (inactive)	> 100 µM (inactive)	2 µM (inactive)	91.2 µM (inactive)
CN(C)CCn1cnc2ncccc2c1=O	> 100 µM (inactive)	> 100 µM (inactive)	> 100 µM (inactive)	> 100 µM (inactive)		> 100 µM (inactive)	> 100 µM (inactive)	> 100 µM (inactive)	> 100 µM (inactive)	> 100 µM (inactive)	> 100 µM (inactive)	> 100 µM (inactive)	> 100 µM (inactive)	> 100 µM (inactive)		> 100 µM (inactive)
CNC(=O)C1CCc2nnc(-c3ccccc3)n21 (stereo unspecified)	> 100 µM (inactive)	> 100 µM (inactive)	55.2 µM (inactive)	> 100 µM (inactive)	> 100 µM	> 100 µM (inactive)		> 100 µM (inactive)	> 100 µM (inactive)	> 100 µM (inactive)		> 100 µM (inactive)	> 100 µM (inactive)	> 100 µM (inactive)	> 100 µM (inactive)	> 100 µM (inactive)
COc1ccc(SS(=O)(=O)c2ccc(OC)cc2)cc1	17.2 µM (inactive)	2.64 µM (inactive)	21.1 µM (inactive)	13.6 µM (inactive)	36.7 µM	23.8 µM (inactive)	17.5 µM (inactive)	23.6 µM (inactive)	15.3 µM (inactive)	18.2 µM (inactive)	30 µM (inactive)	17.4 µM (inactive)	36 µM (inactive)	34.2 µM (inactive)	27.5 µM (inactive)	20 µM (inactive)
O=C(CC1(O)C(=O)Nc2ccccc21)c1ccc(F)cc1 (stereo unspecified)	> 100 µM (inactive)		> 100 µM (inactive)		> 100 µM		> 100 µM (inactive)	> 100 µM (inactive)	> 100 µM (inactive)	> 100 µM (inactive)	> 100 µM (inactive)	> 100 µM (inactive)	> 100 µM (inactive)	> 100 µM (inactive)	> 100 µM (inactive)	> 100 µM (inactive)
c1ccc(Nc2nnc(CSc3nc(-c4ccccc4)c(-c4ccccc4)[nH]3)s2)cc1	18.2 µM (inactive)	15.5 µM (inactive)	19.4 µM (inactive)		18.1 µM	21.1 µM (inactive)	17 µM (inactive)	14.9 µM (inactive)	17.2 µM (inactive)	10.5 µM (inactive)	21.3 µM (inactive)	24.4 µM (inactive)	19 µM (inactive)	22.8 µM (inactive)	11.5 µM (inactive)	
CC(=O)O[C@H]1C(=O)[C@@]2(C)C(C(OC(=O)c3ccccc3)[C@]3(O)CC(OC(=O)C(O)C(NC(=O)c4ccccc4)c4ccc(C)cc4)C(C)=C1C3(C)C)[C@]1(OC(C)=O)CO[C@@H]1C[C@@H]2O (stereo partly specified)	0.073 µM (active)	0.0147 µM (active)	8.95 µM (inactive)		0.897 µM	0.0995 µM (active)	0.033 µM (active)		0.0108 µM (active)	0.00673 µM (active)	0.0618 µM (active)	3.64 µM (inactive)	0.0179 µM (active)	0.0117 µM (active)	0.0117 µM (active)	0.043 µM (active)
COC(=O)C1CC/C(=N/c2ccc(C)cc2C)N1 (stereo unspecified)	> 100 µM (inactive)	> 100 µM (inactive)	> 100 µM (inactive)	> 100 µM (inactive)	> 100 µM	> 100 µM (inactive)	> 100 µM (inactive)	> 100 µM (inactive)	> 100 µM (inactive)	> 100 µM (inactive)	> 100 µM (inactive)	> 100 µM (inactive)	> 100 µM (inactive)	> 100 µM (inactive)	> 100 µM (inactive)	> 100 µM (inactive)
CC(=O)Oc1ccc2c(c1)C(=O)c1nc(C)c(C)nc1C2=O	37.2 µM (inactive)	35.4 µM (inactive)	> 48.6 µM (inactive)	21.4 µM (inactive)	40.9 µM	23.7 µM (inactive)	39.4 µM (inactive)	38.7 µM (inactive)	50.6 µM (inactive)	21.4 µM (inactive)	> 100 µM (inactive)	94.2 µM (inactive)	39.6 µM (inactive)	71.8 µM (inactive)	39.8 µM (inactive)	17.5 µM (inactive)
CC(C)=CC(=O)Cc1nc2ccc([N+](=O)[O-])cc2[nH]c1=O	> 100 µM (inactive)		> 100 µM (inactive)		> 100 µM	> 100 µM (inactive)	> 100 µM (inactive)	> 100 µM (inactive)	23.9 µM (inactive)	> 100 µM (inactive)	> 100 µM (inactive)	> 100 µM (inactive)	> 100 µM (inactive)	> 100 µM (inactive)	17.3 µM (inactive)	> 100 µM (inactive)
Nc1nc(=O)n([C@@H]2CC[C@H](CO)O2)cc1F	> 100 µM (inactive)	> 100 µM (inactive)	> 100 µM (inactive)	42.8 µM (inactive)	> 100 µM	> 100 µM (inactive)	> 100 µM (inactive)	> 100 µM (inactive)	> 100 µM (inactive)	> 100 µM (inactive)	> 100 µM (inactive)	> 100 µM (inactive)	> 100 µM (inactive)	> 100 µM (inactive)	> 100 µM (inactive)	
O=C(NC1CCCC1=O)c1ccccc1 (stereo unspecified)	> 100 µM (inactive)	> 100 µM (inactive)	> 100 µM (inactive)			> 100 µM (inactive)		98.9 µM (inactive)		> 100 µM (inactive)	> 100 µM (inactive)	> 100 µM (inactive)	> 100 µM (inactive)	> 100 µM (inactive)		> 100 µM (inactive)
CCCCCCCCCCCCCCCC(=O)OCCOCCOCCOCCOCCOC(=O)CCCCCCCCCCCCCCC	> 100 µM (inactive)	> 100 µM (inactive)	> 100 µM (inactive)	> 100 µM (inactive)	> 100 µM	> 100 µM (inactive)	> 100 µM (inactive)	> 100 µM (inactive)	> 100 µM (inactive)	> 100 µM (inactive)	> 100 µM (inactive)	> 100 µM (inactive)	> 100 µM (inactive)	> 100 µM (inactive)	> 100 µM (inactive)	> 100 µM (inactive)
CC(C)(C)c1ccc2c(c1)S(=O)(=O)Nc1ccc(Cl)cc1NS(=O)(=O)c1cc(C(C)(C)C)ccc1OCCOCCOCCO2	87.3 µM (inactive)	> 100 µM (inactive)	79.6 µM (inactive)	> 100 µM (inactive)	> 100 µM	32.3 µM (inactive)	> 100 µM (inactive)	57.9 µM (inactive)		50.6 µM (inactive)	> 100 µM (inactive)	31.1 µM (inactive)	45.6 µM (inactive)	33 µM (inactive)		17.9 µM (inactive)
O=[N+]([O-])c1ccc(Cl)c(C2SCc3nc4ccccc4n32)c1 (stereo unspecified)	72.3 µM (inactive)	28 µM (inactive)	42.4 µM (inactive)	71.4 µM (inactive)				24.1 µM (inactive)	22.3 µM (inactive)	36.6 µM (inactive)	27.4 µM (inactive)	29.8 µM (inactive)	50.9 µM (inactive)	36.6 µM (inactive)	31.2 µM (inactive)	39.9 µM (inactive)
CN(C)/C(F)=P\C(F)(F)F (stereo unspecified)	> 100 µM (inactive)	> 100 µM (inactive)	> 100 µM (inactive)	> 100 µM (inactive)	> 100 µM	> 100 µM (inactive)	> 100 µM (inactive)	> 100 µM (inactive)	> 100 µM (inactive)		> 100 µM (inactive)	> 100 µM (inactive)	> 100 µM (inactive)	> 100 µM (inactive)	> 100 µM (inactive)	> 100 µM (inactive)
CC(=O)Nc1ccc(/C=C/C(=O)c2sc(-c3nc(C)c(C(=O)/C=C/c4ccc(NC(C)=O)cc4)s3)nc2C)cc1	> 100 µM (inactive)	> 100 µM (inactive)	> 100 µM (inactive)	> 100 µM (inactive)	> 100 µM	> 100 µM (inactive)	> 100 µM (inactive)	> 100 µM (inactive)	> 100 µM (inactive)	> 100 µM (inactive)	> 100 µM (inactive)	> 10 µM (inactive)	> 100 µM (inactive)	> 100 µM (inactive)		> 100 µM (inactive)
O=C1NC(=O)C2C1C1C=C3c4ccccc4N(c4ccccc4)C32[C@H]2C(=O)NC(=O)[C@@H]12 (stereo partly specified)	> 100 µM (inactive)	> 100 µM (inactive)	> 100 µM (inactive)	> 100 µM (inactive)	> 100 µM	> 100 µM (inactive)	> 100 µM (inactive)	> 100 µM (inactive)	> 100 µM (inactive)	> 100 µM (inactive)	> 100 µM (inactive)	> 100 µM (inactive)	> 100 µM (inactive)	> 100 µM (inactive)	> 100 µM (inactive)	> 100 µM (inactive)
